{"source": "patent US9545393B2", "about": "“Methods and compositions for treating pain” (The Board of Trustees of the Leland Stanford Junior …, priority 2012, dated 2017)", "key": {"[1]": {"test_system": "carrageenan-induced edema", "assay": "Edema assessment of the carrageenan-injected paw (plethysmometer)", "type": "in vivo, rat", "details": "rats, 3 hr after carrageenan; Alda-1-treated versus vehicle-treated", "description": "Edema Assessment. Inflammation-induced edema of the injected paw was assessed using a plethysmometer (Ugo Basile) (Clapper J R, et al., (2010) Anandamide suppresses pain initiation through a peripheral endocannabinoid mechanism. Nature neuroscience 13: 1265-1270; Van Arman C G, et al., (1965) Some details of the inflammation caused by yeast and carragenin. J Pharmacol Exp Ther 150: 328-333)."}, "[2]": {"assay": "Half-life of Alda-1 (preliminary studies)", "type": "in vivo", "details": "estimated; reason for multiple doses", "description": "Alda-1 dose (2 mg/kg/per injection, dissolved in 50% PEG/50% DMSO) was established in preliminary studies and given in multiple doses due to its estimated short half-life. Alda-1 was injected subcutaneously to the dorsal side of the neck 15 minutes before carrageenan or saline, and again at 30 and 150 minutes after carrageenan, prostaglandin E2 or saline injection. One subset of animals received Alda-1 only 30 and 150 minutes after carrageenan injection. Where indicated, naloxone (1 mg/kg per injection) or vehicle (saline) was given 10 minutes prior to each Alda-1 treatment to the dorsal side of the neck."}, "[3]": {"test_system": "rats subjected to prostaglandin E2 insult to the right hind paw", "assay": "Randall-Selitto paw pressure test, prostaglandin E2-induced hyperalgesia in rats", "type": "in vivo, rat", "description": "Rats. Male Wistar rats (170-190 g) were provided by Charles River Laboratories or Butantan Institute Animal Facility and housed in a temperature-controlled (22±1° C.) and light-controlled (12/12 h light/dark cycle) room. All rats were housed in their surrounding for at least 3 days. Groups of 5-6 rats were used.\nDrugs Used. 0.1 ml saline (control), carrageenan (200 μg for rats, 100 μg for mice; Marine Colloids), or prostaglandin E2 (100 ng, Sigma) was administered by intraplantar injection into the right hind paw to induce hyperalgesia. […]\nNociception Assessment. […] Nociceptive response was assessed by the von Frey method for mice and the Randall-Selitto method for rats immediately before and 180 minutes after carrageenan or prostaglandin E2 injection. […]\nRandall-Selitto method: Nociceptive threshold was determined using the Randall-Selitto paw pressure test (Ugo-Basile), as previously described (Gutierrez V P, et al., (2008) Crotalphine induces potent antinociception in neuropathic pain by acting at peripheral opioid receptors. European journal of pharmacology 594: 84-92). […]"}, "[4]": {"test_system": "4-hydroxynonenal (4-HNE) protein adducts", "assay": "Western blot of 4-HNE protein adducts in inflamed paw", "type": "in vivo, rat", "details": "rats, 3 hours after carrageenan; P<0.01", "description": "(§1) Biochemical Studies In Rats and Mice. Protein was isolated from rat paw tissue at 3 hours after treatment or from liver tissue of mutant or wild type mice. Tissues were homogenized in buffer containing (Hepes 10 mM, NaCl 0.9%, EGTA 1 mM, DTPA 100 μM, Triton-X 1%, Protease and Phosphatase inhibitors (AEBSF, Aprotinin, Bestatin, E-64, Leupeptin, Pepstatin A, Sodium orthovanadate, Sodium molybdate, Sodium tartrate, Imidazole, Cantharidin, (−)-p-Bromolevamisole oxalate and Calyculin A). The samples were centrifuged at 700 g for 5 min at 4° C. Mitochondrial fraction from liver was obtained as previously described (Chen, et al. (2008) Activation of aldehyde dehydrogenase-2 reduces ischemic damage to the heart. Science 321, 1493-1495; Sun, L., et al. ALDH2 activator inhibits increased myocardial infarction injury by nitroglycerin tolerance. Sci Transl Med 3, 107ra111). Activation of aldehyde dehydrogenase-2 reduces ischemic damage to the heart. Science 2008; 321:1493-5). The protein concentration was determined in the supernatants by using Bradford (Bradford, M. M. (1976). A rapid and sensitive method for the quantitation of microgram quantities of protein utilizing the principle of protein-dye binding. Anal Biochem 72, 248-254).\n(§2) Western blot analysis. […] Quantification analysis of blots was performed with Image J software, using GAPDH as a loading control."}, "[5]": {"test_system": "ALDH2 *1/*2 heterozygous mice", "assay": "von Frey hair test, carrageenan-induced acute pain model, ALDH2 *1/*2 heterozygous mice", "type": "in vivo, mouse", "details": "von Frey hair (1.20 gram in FIG. 1E), Alda-1 2 mg/kg s.c."}, "neutrophil elastase": {"test_system": "neutrophil elastase", "assay": "Western blot of neutrophil elastase in paw after carrageenan", "type": "in vivo, rat", "details": "rats, carrageenan group treated with Alda-1; Western blot quantification", "description": "as §1, §2"}, "mast cell chymase": {"test_system": "mast cell chymase", "assay": "Western blot of mast cell chymase in paw after carrageenan", "type": "in vivo, rat", "details": "rats, 3 hours after carrageenan; Alda-1 versus vehicle", "description": "as §1, §2"}, "[6]": {"details": "previously shown (Chen 2008; Koda 2010); cited from earlier work"}}, "note": "“Also recorded” adds a separate entry of the source.", "data": [{"smiles": "O=C(NCc1ccc2c(c1)OCO2)c1c(Cl)cccc1Cl", "note": "[Alda-1, N-(1,3-benzodioxol-5-ylmethyl)-2,6-dichlorobenzamide]", "values": [{"measurement": "Carrageenan-induced increase in paw diameter (edema)", "setting": "[1]", "result": "no differences; also recorded: unaffected"}, {"measurement": "Half-life", "setting": "[2]", "result": "short"}, {"measurement": "Increase of nociceptive threshold", "setting": "[3]; prostaglandin E2-induced model, Alda-1 2 mg/kg s.c. 15 min before and 30 and 150 min after insult, tested 3 hours after insult", "result": 2, "unit": "fold"}, {"measurement": "Nociceptive threshold (FIG. 1B)", "setting": "[3]; prostaglandin E2 insult, Alda-1 2 mg/kg s.c., 3 hours after insult, P<0.001", "result": "significantly increased nociceptive threshold"}, {"measurement": "4-HNE-protein adduct levels in the inflamed paw", "setting": "[4]", "result": "reduced"}, {"measurement": "Response to nociceptive stimulus / pain threshold", "setting": "[5]", "result": "significantly increased pain threshold; also recorded: bringing the response to wild type levels"}, {"measurement": "Neutrophil elastase (marker of inflammation)", "setting": "neutrophil elastase", "result": "220±26"}, {"measurement": "Mast cell chymase level in the paw", "setting": "mast cell chymase", "result": "no differences; also recorded: increased equally"}, {"measurement": "Cardiovascular benefits after acute myocardial infarction", "setting": "[6]", "result": "reducing infarct size and arrhythmias"}]}]}
